Results as given in patent US20210196731A1, “COMPOSITIONS AND METHODS FOR TREATING OCULAR INFLAMMATION AND OCULAR SCARRING” (priority 2018, published 2021).

Experiments:
Type in all cases: cell-based, human
PPARγ = test: Western blot of HTCF protein lysate, PPARγ; details: AHGFs; ASA 100, 400, 1600 μg/ml, 48 hrs
Experimental: (§1) Cells were lysed in lysis buffer (PhosphoSafe Extraction Reagent, Novagen) containing a protease inhibitor cocktail (P2714, Sigma-Aldrich). Crude protein lysate was quantified using a Pierce BCA protein assay kit (ThermoFisher, Mississauga, ON) and 10 ug from each sample was resolved using a Novex WedgeWell 4-20% tris-glycine gel (Invitrogen). Using an iBlot Gel Transfer Device (IB1001, Invitrogen), the separated protein was transferred to a nitrocellulose membrane (1B301001, iBlot Transfer Stack, Invitrogen) which was then blocked with 5% (w/v) bovine serum albumin (Sigma-Aldrich) in Tris buffered saline (TBST) for 1 hour at room temperature. The membranes were incubated overnight at 4° C. with primary antibody diluted in TBST containing 5% BSA (w/vol). Primary antibodies used were as follows: collagen 1 (ab138492, Abcam), αSMA (ab5694, Abcam), MMP9 (ab38898, Abcam), PPARγ (sc-7273, SantaCruz Biotechnology), SMAD2/3 (ab63672, Abcam), pSMAD2/3 (ab63399, Abcam) and GAPDH (sc-47724, Santa Cruz Biotechnology, Inc.). […] Imaging and relative densiometric quantification was accomplished using a ChemiDoc MP System (Bio-Rad Laboratories, Inc.) connected to Image Lab (Version 6, Bio-Rad Laboratories, Inc.).

MMP9 = test: Western blot of HTCF protein lysate, MMP9; details: ASA 100, 400, 1600 μg/ml, 48 hrs
Experimental: as §1

HTCFs = test: Collagen Contraction Assay III (TGFB1-induced); details: ASA 1000 or 1500 μg/ml, with or without gentamicin; TGFB1 2 ng/ml added at 48 hrs
Experimental: A modified delayed release fibroblast populated collagen lattice model was used to assess inhibition of TGFB1-induced collagen contraction by ASA and gentamicin. HTCFs were seeded at a density of 2.5×10^5 cells/mL within an extracellular matrix (ECM) mixture containing 400 ul of rat tail-derived type I collagen (1.8 mg/ml), 80 ul of neutralizing solution (equal parts Waymouth's media (Gibco, CAT. NO: 11220035) and 0.275M NaOH) and 20 ul of HTCF conditioned media (concentrated to 25× to obtain a 1× final concentration within the 500 ul matrix solution). The cell-collagen solution was pipetted gently to ensure homogenous distribution of HTCFs while avoiding the production of air bubbles, then 500 ul were pipetted into each well of a 24-well tray. […]
Tension was allowed to build up within the tethered matrix at 37 C and 5% CO2 for 72 hours before a sterile spatula was used to detach each collagen construct from the edges of the culture well. Plates were then immediately scanned on a flat bed laser scanner for a baseline area reading and then measured again regularly for a total of 4 days. […] The surface area of each collagen construct was measured using ImageJ (NIH) and standardized against the baseline surface area measurement to express changes in area as a percentage of original surface area. […]

CC(=O)Oc1ccccc1C(=O)O [ASA, acetylsalicylic acid]
expression of PPARγ (PPARγ): significantly induce expression of PPARγ
AHGF-induced expression of MMP9 (MMP9): significantly impaired the AHGF-induced expression
HTCF-mediated collagen contraction before and after TGFb1 stimulus (HTCFs): significantly impair HTCF-mediated contraction, at all concentrations assessed, both before and after stimulus with TGFb1
